Assays:
Pro2000-13-10 = assay: method of reducing viral plates (plaque reduction); format: cell-based, HSV-2
Procedure: (§1) According to the present invention, a method of reducing the viral plates comprises the following process: Vero cells monolayers developed in 24 wells microplates are infected with 50 UFP/well of virus in the absence or presence of different compounds concentrations. Each dilution is tested by duplicate. After 1 hour adsorption at 37° C., the inoculum is removed and covered by plating medium (culture media with methylcellulose at a final concentration of 0.7%). Inoculation is continued till the viral plates' appearance, which are then counted after fitting and dying the cells with violet crystal. Moreover, according to the present invention, 50% inhibitory concentration (IC50) means the compound concentration required for reducing about 50% the number of viral plates.
(§2) Compounds were present during the viral adsorption (1h, 37° C.) and after the infection. When a cytopathic action (ACP) between 80-90%, during a period among 24 to 72 hours p.i., was observed, cells were lysed with freeze-thawing cycles. In order to remove cellular moieties, the cellular lisate was centrifuged during 10 min at 1000 rpm, keeping the supernatant at −70° C. The supernatant was used to infect a new monolayer in the presence of SAMMA or PRO2000. […] The title and the IC50 of each viral passage was determined by viral plates reduction test (or after 2-3 passages) against SAMMA or PRO20000.
(§3) By the end of a year, the corresponding virus to passages 13 and 16 in the presence of PRO2000 and SAMMA, respectively, were cloned in monolayers of Vero cells developed in 6 wells plates. The cellular monolayers were infected with a limited dilution of virus and were coated with maintenance media (MM) containing agarose 0.6%. After 2 days incubation, cells were dyed with neutral red and clones were stippled. For clone amplification, Vero cells with each selected clone were infected; after 1 hour adsorption at 37° C., the innoculum was discarded and was covered with MM, subjected to incubation 24-48 h at 37° C. till ACP development was observed.

Pro2000-13-5 = assay: method of reducing viral plates (plaque reduction); format: cell-based, HSV-2
Procedure: as §1, §2, §3

SAMMA-15-7 = assay: method of reducing viral plates (plaque reduction); format: cell-based, HSV-2
Procedure: as §1, §2, §3

Pro2000-syn13-1 = assay: method of reducing viral plates (plaque reduction); format: cell-based, HSV-2
Procedure: as §1, §2, §3

SAMMA-15-3 = assay: method of reducing viral plates (plaque reduction); format: cell-based, HSV-2
Procedure: as §1, §2, §3

Pro2000-syn13-9 = assay: method of reducing viral plates (plaque reduction); format: cell-based, HSV-2
Procedure: as §1, §2, §3

HSV-1 TK^− B2006 = assay: method of reducing viral plates (plaque reduction); format: cell-based
Procedure: as §1
(§4) Thus, preliminary tests of the cloned variants of passages with greater selection pressure of 1C3 (17, 20 and 21) with pyrimidine and purine analogous as aciclovir (ACV) and brivudin (BVDU) would disclose alterations at viral TK level as it is shown in Table VIII, a characteristic that, up to date, has not been published in previous art documents. The TK gene is not essential for the in vitro viral replication, though in vivo, is involved in the virulence, pathogenicity and reactivation since latency (Andrei G et al., 2005). […] Therefore, the selection pressure to which the viruses were subjected could have selected mutations in the TK gene and in additional superimposing genes generating strains with less in vivo pathogenic action (Jacobson J et al., 1993).

HSV-1 (F) = assay: method of reducing viral plates (plaque reduction); format: cell-based
Procedure: as §1, §2

1C3 syn 21-1 = assay: method of reducing viral plates (plaque reduction); format: cell-based, HSV-1
Procedure: as §1, §4

1C3 syn 20-3 = assay: method of reducing viral plates (plaque reduction); format: cell-based, HSV-1
Procedure: as §1, §4

1C3 syn 17-3 = assay: method of reducing viral plates (plaque reduction); format: cell-based, HSV-1
Procedure: as §1, §4

1C3 syn 17-2 = assay: method of reducing viral plates (plaque reduction); format: cell-based, HSV-1
Procedure: as §1, §4

1C3 syn 21-3 = assay: method of reducing viral plates (plaque reduction); format: cell-based, HSV-1
Procedure: as §1, §4

1C3 syn 17-1 = assay: method of reducing viral plates (plaque reduction); format: cell-based, HSV-1
Procedure: as §1, §4

1C3 syn 20-1 = assay: method of reducing viral plates (plaque reduction); format: cell-based, HSV-1
Procedure: as §1, §4

1C3 syn 20-2 = assay: method of reducing viral plates (plaque reduction); format: cell-based, HSV-1
Procedure: as §1, §4

1C3 syn 21-2 = assay: method of reducing viral plates (plaque reduction); format: cell-based, HSV-1
Procedure: as §1, §4

1C3-syn-13-8 = assay: method of reducing viral plates (plaque reduction); format: cell-based, HSV-1
Procedure: as §1, §2

1C3-syn-14-1 = assay: method of reducing viral plates (plaque reduction); format: cell-based, HSV-1
Procedure: as §1, §2

HSV-2 (G) = format: cell-based; conditions: virus HSV-2 (G)
Procedure: as §1, §2

## Heparine
Pro2000-13-10; IC50 of variant Pro2000-13-10 / IC50 for HSV-2 (G)
  RR (relative resistance): 1.4
Pro2000-13-10; virus Pro2000-13-10
  IC50: 2.6 µg/mL
Pro2000-13-5; IC50 of variant Pro2000-13-5 / IC50 for HSV-2 (G)
  RR (relative resistance): 1.2
Pro2000-13-5; virus Pro2000-13-5
  IC50: 2.2 µg/mL
SAMMA-15-7; IC50 of variant SAMMA-15-7 / IC50 for HSV-2 (G)
  RR (relative resistance): 6.7
SAMMA-15-7; virus SAMMA-15-7
  IC50: 12.0 µg/mL
Pro2000-syn13-1; IC50 of variant Pro2000-syn13-1 / IC50 for HSV-2 (G)
  RR (relative resistance): 4.3
Pro2000-syn13-1; virus Pro2000-syn13-1
  IC50: 7.8 µg/mL
SAMMA-15-3; IC50 of variant SAMMA-15-3 / IC50 for HSV-2 (G)
  RR (relative resistance): 4.6
SAMMA-15-3; variant SAMMA-15-3
  susceptibility of variant to drug (in words): resistant
SAMMA-15-3; virus SAMMA-15-3
  IC50: 8.4 µg/mL
Pro2000-syn13-9; IC50 of variant Pro2000-syn13-9 / IC50 for HSV-2 (G)
  RR (relative resistance): 10.8
Pro2000-syn13-9; variant Pro2000-syn-13-9
  susceptibility of variant to drug (in words): resistant
Pro2000-syn13-9; virus Pro2000-syn13-9
  IC50: 19.5 µg/mL
HSV-1 TK^− B2006; IC50 of HSV-1 TK^− B2006 / IC50 of HSV-1 (F)
  Relative resistance (RR): 3.0
HSV-1 TK^− B2006; strain HSV-1 TK^− B2006
  IC50: 3.5 µg/mL
HSV-1 (F); Table IV, virus HSV-1 (F)
  IC50: 1.4 µg/mL
HSV-1 (F); Table VIII, strain HSV-1 (F)
  IC50: 1.25 µg/mL
1C3 syn 21-1; IC50 of clone 1C3 syn 21-1 / IC50 of HSV-1 (F)
  Relative resistance (RR): 8.0
1C3 syn 21-1; strain 1C3 syn 21-1
  IC50: 10.0 µg/mL
1C3 syn 20-3; IC50 of clone 1C3 syn 20-3 / IC50 of HSV-1 (F)
  Relative resistance (RR): > 16.0
1C3 syn 20-3; strain 1C3 syn 20-3
  IC50: > 20 µg/mL
1C3 syn 17-3; IC50 of clone 1C3 syn 17-3 / IC50 of HSV-1 (F)
  Relative resistance (RR): 5.7
1C3 syn 17-3; strain 1C3 syn 17-3
  IC50: 7.1 µg/mL
1C3 syn 17-2; IC50 of clone 1C3 syn 17-2 / IC50 of HSV-1 (F)
  Relative resistance (RR): > 16.0
1C3 syn 17-2; strain 1C3 syn 17-2
  IC50: > 20 µg/mL
1C3 syn 21-3; IC50 of clone 1C3 syn 21-3 / IC50 of HSV-1 (F)
  Relative resistance (RR): 5.7
1C3 syn 21-3; strain 1C3 syn 21-3
  IC50: 7.1 µg/mL
1C3 syn 17-1; IC50 of clone 1C3 syn 17-1 / IC50 of HSV-1 (F)
  Relative resistance (RR): 8.0
1C3 syn 17-1; strain 1C3 syn 17-1
  IC50: 10.0 µg/mL
1C3 syn 20-1; IC50 of clone 1C3 syn 20-1 / IC50 of HSV-1 (F)
  Relative resistance (RR): > 16.0
1C3 syn 20-1; strain 1C3 syn 20-1
  IC50: > 20 µg/mL
1C3 syn 20-2; IC50 of clone 1C3 syn 20-2 / IC50 of HSV-1 (F)
  Relative resistance (RR): > 16.0
1C3 syn 20-2; strain 1C3 syn 20-2
  IC50: > 20 µg/mL
1C3 syn 21-2; IC50 of clone 1C3 syn 21-2 / IC50 of HSV-1 (F)
  Relative resistance (RR): 8.0
1C3 syn 21-2; strain 1C3 syn 21-2
  IC50: 10.0 µg/mL
1C3-syn-13-8; IC50 of variant 1C3-syn-13-8 / IC50 for HSV-1 (F)
  RR (relative resistance): 0.9
1C3-syn-13-8; Table IV, virus 1C3-syn-13-8
  IC50: 1.2 µg/mL
1C3-syn-13-8; variant 1C3-syn-13-8
  susceptibility of variant to drug (in words): sensitive
1C3-syn-14-1; Table IV, IC50 of variant 1C3-syn-14-1 / IC50 for HSV-1 (F)
  RR (relative resistance): 2.9
1C3-syn-14-1; Table IV, virus 1C3-syn-14-1
  IC50: 4.1 µg/mL
1C3-syn-14-1; Table VIII, IC50 of clone 1C3 syn 14-1 / IC50 of HSV-1 (F)
  Relative resistance (RR): 5.7
1C3-syn-14-1; Table VIII, strain 1C3 syn 14-1
  IC50: 7.1 µg/mL
1C3-syn-14-1; variant 1C3-syn-14-1
  susceptibility of variant to drug (in words): resistant
HSV-2 (G)
  IC50: 1.8 µg/mL

Reference: patent US20100278858A1, “PROCESS FOR PREPARING […] STRAINS” (priority 2007, published 2010)
